Where a SMILES comes first, the peptide text is derived from it. Bridges are numbered along the chain shown (N, C = ends). [ ]: non-standard residue; d: D form. The star is where a group is joined. Val(Nα-amidino) = CC(C)[C@H](NC(=N)N)C(=O)*; Hyp = O=C(O)[C@@H]1C[C@@H](O)CN1; Cit = NC(=O)NCCC[C@H](N)C(=O)O; Pen = CC(C)(S)[C@H](N)C(=O)O; ΔPro = O=C(O)[C@@H]1C=CCN1; dDab = NCC[C@@H](N)C(=O)O; Dab = NCC[C@H](N)C(=O)O
Legend:
Type in all cases: cell-based
[1] = system: Escherichia coli ATCC 25922; details: ATCC 25922
Outline: (§1)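 The MIC is the lowest peptide concentration, in μg/mL, with no visible growth after 18-20 h incubation at 35 °C. Serial two-fold peptide dilutions in water with 0.002% P-80 final were added to bacteria in cation-adjusted MHII broth, about 5×10^5 CFU/mL, following modified CLSI microdilution.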

[2] = system: Escherichia coli MCR-1 Af 45; details: MCR-1 Af 45
Outline: as §1

[3] = system: Klebsiella pneumoniae SSI3010; details: SSI3010
Outline: as §1

[4] = system: human red blood cells (hRBC); details: red cells of human, 1 h, 200 μg/mL
Outline: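 Percent hemolysis derived from OD540 of supernatants relative to full lysis by 2.5% Triton X-100 (PBS baseline). Washed fresh human erythrocytes (20% v/v) were exposed to 200 μg/mL peptide for 1 h at 37 °C with shaking.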

SMILES	Escherichia coli ATCC 25922 MIC [1] [µg/mL]	Escherichia coli MCR-1 Af45 MIC [2] [µg/mL]	Klebsiella pneumoniae SSI3010 MIC [3] [µg/mL]	Hemolysis at 0.2 g/L [4] [%]
CC[C@H](C)[C@H](NC(=O)[C@@H]1C[C@@H](O)CN1C(=O)[C@@H](NC(=N)N)C(C)C)C(=O)N[C@@H]1C(=O)N[C@@H](Cc2ccc(O)cc2)C(=O)N[C@@H](CCN)C(=O)N[C@@H](CC(N)=O)C(=O)N[C@@H](CCCNC(=N)N)C(=O)N[C@@H](CCN)C(=O)N[C@@H]([C@@H](C)O)C(=O)N[C@H](CCN)C(=O)N[C@@H](CO)C(=O)N[C@@H]([C@@H](C)O)C(=O)N[C@@H](CCN)C(=O)N[C@H](C(=O)N[C@@H](Cc2ccc(O)cc2)C(=O)O)CSSC1(C)C [Example 102, Gua-Val-Hyp-Ile-Pen-Tyr-Dab-Asn-Arg-Dab-Thr-^DDab-Ser-T-Dab-Cys-Tyr] ({Val(Nα-amidino)}-[Hyp]I[Pen]Y[Dab]NR[Dab]T[dDab]ST[Dab]CY-OH; disulfide 3-14)	0.25	0.25	0.5	<1
CC[C@H](C)[C@H](NC(=O)[C@@H]1C[C@@H](O)CN1C(=O)[C@@H](NC(=N)N)C(C)C)C(=O)N[C@@H]1C(=O)N[C@@H](Cc2ccc(O)cc2)C(=O)N[C@@H]([C@@H](C)O)C(=O)N[C@@H](CC(N)=O)C(=O)N[C@@H](CCCNC(=N)N)C(=O)N[C@H](CCN)C(=O)N[C@@H]([C@@H](C)O)C(=O)N[C@H](CCN)C(=O)N[C@@H](CO)C(=O)N[C@@H](CCN)C(=O)N[C@@H](CCN)C(=O)N[C@H](C(=O)N[C@@H](Cc2ccc(O)cc2)C(=O)O)CSSC1(C)C [Example 103, Gua-Val-Hyp-Ile-Pen-Tyr-Thr-Asn-Arg-^DDab-Thr-^DDab-Ser-Dab-Dab-Cys-Tyr] ({Val(Nα-amidino)}-[Hyp]I[Pen]YTNR[dDab]T[dDab]S[Dab][Dab]CY-OH; disulfide 3-14)	0.125	0.125	0.25	<1
CC[C@H](C)[C@H](NC(=O)[C@@H]1C[C@@H](O)CN1C(=O)[C@@H](NC(=N)N)C(C)C)C(=O)N[C@@H]1C(=O)N[C@@H](Cc2ccc(O)cc2)C(=O)N[C@@H](CO)C(=O)N[C@@H](CC(N)=O)C(=O)N[C@@H](CCCNC(=N)N)C(=O)N[C@H](CCN)C(=O)N[C@@H]([C@@H](C)O)C(=O)N[C@H](CCN)C(=O)N[C@@H](CO)C(=O)N[C@@H](CCN)C(=O)N[C@@H](CCN)C(=O)N[C@H](C(=O)N[C@@H](Cc2ccc(O)cc2)C(=O)O)CSSC1(C)C [Example 104, Gua-Val-Hyp-Ile-Pen-Tyr-Ser-Asn-Arg-^DDab-Thr-^DDab-Ser-Dab-Dab-Cys-Tyr] ({Val(Nα-amidino)}-[Hyp]I[Pen]YSNR[dDab]T[dDab]S[Dab][Dab]CY-OH; disulfide 3-14)	0.25	0.25	0.25	<1
CC[C@H](C)[C@H](NC(=O)[C@@H]1C[C@@H](O)CN1C(=O)[C@@H](NC(=N)N)C(C)C)C(=O)N[C@@H]1C(=O)N[C@@H](Cc2ccc(O)cc2)C(=O)N[C@@H]([C@@H](C)O)C(=O)N[C@@H](CC(N)=O)C(=O)N[C@@H](CCCNC(=N)N)C(=O)N[C@@H](CCN)C(=O)N[C@@H]([C@@H](C)O)C(=O)N[C@H](CCN)C(=O)N[C@@H](CC(N)=O)C(=O)N[C@@H](CCN)C(=O)N[C@@H](CCN)C(=O)N[C@H](C(=O)N[C@@H](Cc2ccc(O)cc2)C(=O)O)CSSC1(C)C [Example 105, Gua-Val-Hyp-Ile-Pen-Tyr-Thr-Asn-Arg-Dab-Thr-^DDab-Asn-Dab-Dab-Cys-Tyr] ({Val(Nα-amidino)}-[Hyp]I[Pen]YTNR[Dab]T[dDab]N[Dab][Dab]CY-OH; disulfide 3-14)	0.125	0.125	0.25	<1
CC[C@H](C)[C@H](NC(=O)[C@@H]1C[C@@H](O)CN1C(=O)[C@@H](NC(=N)N)C(C)C)C(=O)N[C@@H]1C(=O)N[C@@H](Cc2ccc(O)cc2)C(=O)N[C@@H](CO)C(=O)N[C@@H](CC(N)=O)C(=O)N[C@@H](CCCNC(=N)N)C(=O)N[C@@H](CCN)C(=O)N[C@@H]([C@@H](C)O)C(=O)N[C@H](CCN)C(=O)N[C@@H](CCCNC(N)=O)C(=O)N[C@@H](CCN)C(=O)N[C@@H](CCN)C(=O)N[C@H](C(=O)N[C@@H](Cc2ccc(O)cc2)C(=O)O)CSSC1(C)C [Example 106, Gua-Val-Hyp-Ile-Pen-Tyr-Ser-Asn-Arg-Dab-Thr-^DDab-Cit-Dab-Dab-Cys-Tyr] ({Val(Nα-amidino)}-[Hyp]I[Pen]YSNR[Dab]T[dDab][Cit][Dab][Dab]CY-OH; disulfide 3-14)	0.125	0.125	0.25	<1
CC[C@H](C)[C@H](NC(=O)[C@@H]1C[C@@H](O)CN1C(=O)[C@@H](NC(=N)N)C(C)C)C(=O)N[C@@H]1C(=O)N[C@@H](Cc2ccc(O)cc2)C(=O)N[C@@H](CO)C(=O)N[C@@H](CC(N)=O)C(=O)N[C@@H](CCCNC(=N)N)C(=O)N[C@@H](CCN)C(=O)N[C@@H]([C@@H](C)O)C(=O)N[C@H](CCN)C(=O)N[C@@H](CC(N)=O)C(=O)N[C@@H](CCN)C(=O)N[C@@H](CCN)C(=O)N[C@H](C(=O)N[C@@H](Cc2ccc(O)cc2)C(=O)O)CSSC1(C)C [Example 107, Gua-Val-Hyp-Ile-Pen-Tyr-Ser-Asn-Arg-Dab-Thr-^DDab-Asn-Dab-Dab-Cys-Tyr] ({Val(Nα-amidino)}-[Hyp]I[Pen]YSNR[Dab]T[dDab]N[Dab][Dab]CY-OH; disulfide 3-14)	0.125	0.125	0.25	<1
CC[C@H](C)[C@H](NC(=O)[C@@H]1C[C@@H](O)CN1C(=O)[C@@H](NC(=N)N)C(C)C)C(=O)N[C@@H]1C(=O)N[C@@H](Cc2ccc(O)cc2)C(=O)N[C@@H]([C@@H](C)O)C(=O)N[C@@H](CC(N)=O)C(=O)N[C@@H](CCCNC(=N)N)C(=O)N[C@@H](CCN)C(=O)N[C@@H]([C@@H](C)O)C(=O)N[C@H](CCN)C(=O)N[C@@H](CCCCN)C(=O)N[C@@H](CCN)C(=O)N[C@@H](CO)C(=O)N[C@H](C(=O)N[C@@H](Cc2ccc(O)cc2)C(=O)O)CSSC1(C)C [Example 108, Gua-Val-Hyp-Ile-Pen-Tyr-Thr-Asn-Arg-Dab-Thr-Dab-Lys-Dab-S-Cys-Tyr] ({Val(Nα-amidino)}-[Hyp]I[Pen]YTNR[Dab]T[dDab]K[Dab]SCY-OH; disulfide 3-14)	0.25	0.125	0.25	<1
CC[C@H](C)[C@H](NC(=O)[C@@H]1C=CCN1C(=O)[C@@H](NC(=N)N)C(C)C)C(=O)N[C@@H]1C(=O)N[C@@H](Cc2ccc(O)cc2)C(=O)N[C@@H]([C@@H](C)O)C(=O)N[C@@H](CC(N)=O)C(=O)N[C@@H](CCCNC(=N)N)C(=O)N[C@@H](CCN)C(=O)N[C@@H]([C@@H](C)O)C(=O)N[C@H](CCN)C(=O)N[C@@H](CCCCN)C(=O)N[C@@H](CCN)C(=O)N[C@@H](CCN)C(=O)N[C@H](C(=O)N[C@@H](Cc2ccc(O)cc2)C(=O)O)CSSC1(C)C [Example 109, Gua-Val-Pro(3,4dehydro)-Ile-Pen-Tyr-Thr-Asn-Arg-Dab-Thr-^DDab-Lys-Dab-Dab-Cys-Tyr] ({Val(Nα-amidino)}-[ΔPro]I[Pen]YTNR[Dab]T[dDab]K[Dab][Dab]CY-OH; disulfide 3-14)	0.0625	0.03125	0.125	<1
CC[C@H](C)[C@H](NC(=O)[C@@H]1C=CCN1C(=O)[C@@H](NC(=N)N)C(C)C)C(=O)N[C@@H]1C(=O)N[C@@H](Cc2ccc(O)cc2)C(=O)N[C@@H](CO)C(=O)N[C@@H](CC(N)=O)C(=O)N[C@@H](CCCNC(=N)N)C(=O)N[C@@H](CCN)C(=O)N[C@@H]([C@@H](C)O)C(=O)N[C@H](CCN)C(=O)N[C@@H](CCCCN)C(=O)N[C@@H](CCN)C(=O)N[C@@H](CCN)C(=O)N[C@H](C(=O)N[C@@H](Cc2ccc(O)cc2)C(=O)O)CSSC1(C)C [Example 110, Gua-Val-Pro(3,4dehydro)-Ile-Pen-Tyr-Ser-Asn-Arg-Dab-Thr-^DDab-Lys-Dab-Dab-Cys-Tyr] ({Val(Nα-amidino)}-[ΔPro]I[Pen]YSNR[Dab]T[dDab]K[Dab][Dab]CY-OH; disulfide 3-14)	0.0625	0.0625	0.125	<1
CC[C@H](C)[C@H](NC(=O)[C@@H]1C=CCN1C(=O)[C@@H](NC(=N)N)C(C)C)C(=O)N[C@@H]1C(=O)N[C@@H](Cc2ccc(O)cc2)C(=O)N[C@@H]([C@@H](C)O)C(=O)N[C@@H](CC(N)=O)C(=O)N[C@@H](CCCNC(=N)N)C(=O)N[C@@H](CCN)C(=O)N[C@@H]([C@@H](C)O)C(=O)N[C@H](CCN)C(=O)N[C@@H](CO)C(=O)N[C@@H](CCN)C(=O)N[C@@H](CCN)C(=O)N[C@H](C(=O)N[C@@H](Cc2ccc(O)cc2)C(=O)O)CSSC1(C)C [Example 111, Gua-Val-Pro(3,4dehydro)-Ile-Pen-Tyr-Thr-Asn-Arg-Dab-Thr-^DDab-Ser-Dab-Dab-Cys-Tyr] ({Val(Nα-amidino)}-[ΔPro]I[Pen]YTNR[Dab]T[dDab]S[Dab][Dab]CY-OH; disulfide 3-14)	0.125	0.0625	0.125	<1
